{"source": "patent US4065616A", "about": "“Processes for production of a 1-N-(α-hydroxy-.PHI.-amino alkanoyl)-3-deoxy-5-O-pentafuranosyl neamine and new compounds produced by the same processes” (Zaidan Hojin Biseibutsu Kagaku Kenkyu Kai, priority 1975, dated 1977)", "key": {"[1]": {"system": "kanamycin-resistant bacteria", "conditions": "in words, prior work; cited from earlier work"}, "Sarcina lutea PCl 1001": {"system": "Sarcina lutea PCl 1001", "test": "M.I.C. by standard serial dilution method", "type": "cell-based", "conditions": "Micrococcus luteus, PCL1001, nutrient agar, 37° C, 18 hours, read-out: minimum inhibitory concentration (M.I.C.)", "description": "(§1) These particular compounds, that is, 1-n-(α-hydroxy-ω-aminoalkanoyl)-3'-deoxy-5-O-pentofuranosylneamines according to the aforesaid general formula (I) have useful antibacterial activity against a wide variety of bacteria, including gram-negative bacteria and gram-positive bacteria. The minimum inhibitory concentration (M.I.C.) (mcg/ml) of these compounds against various organisms was determined by a standard serial dilution method at an incubation temperature of 37° C, the estimation being made after 18 hours incubation or each test organism, except that the incubation time was 48 hours for Mycobacterium smegmatis. The incubation medium used was nutrient agar."}, "[2]": {"system": "Escherichia coli K-12 LA 290 R55", "test": "M.I.C. by standard serial dilution method", "type": "cell-based", "conditions": "K12LA290R55, 18 h, read-out: minimum inhibitory concentration (M.I.C.)", "description": "as §1"}, "[3]": {"system": "Pseudomonas aeruginosa TI-13", "test": "M.I.C. by standard serial dilution method", "type": "cell-based", "conditions": "TI13, P. aeruginosa TI-13, nutrient agar, 37° C, 18 hours, read-out: minimum inhibitory concentration (M.I.C.)", "description": "as §1"}, "[4]": {"system": "Escherichia coli K-12 LA 290 R64", "test": "M.I.C. by standard serial dilution method", "type": "cell-based", "conditions": "K12LA290R64, 18 h, read-out: minimum inhibitory concentration (M.I.C.)", "description": "as §1"}, "[5]": {"system": "Pseudomonas aeruginosa GN 315", "test": "M.I.C. by standard serial dilution method", "type": "cell-based", "conditions": "GN315, P. aeruginosa GN 315, nutrient agar, 37° C, 18 hours, read-out: minimum inhibitory concentration (M.I.C.)", "description": "as §1"}, "[6]": {"system": "Mycobacterium smegmatis ATCC 607", "test": "M.I.C. by standard serial dilution method", "type": "cell-based", "conditions": "Mycolicibacterium smegmatis, ATCC607, nutrient agar, 37° C, 48 hours, read-out: minimum inhibitory concentration (M.I.C.)", "description": "as §1"}, "Proteus rettgeri GN 466": {"system": "Proteus rettgeri GN 466", "test": "M.I.C. by standard serial dilution method", "type": "cell-based", "conditions": "Providencia rettgeri, GN466; Proteus rettgeri GN 466; nutrient agar, 37° C, 18 hours; read-out: minimum inhibitory concentration (M.I.C.)", "description": "as §1"}, "[7]": {"system": "Pseudomonas aeruginosa A3", "test": "M.I.C. by standard serial dilution method", "type": "cell-based", "conditions": "P. aeruginosa A3, nutrient agar, 37° C, 18 hours, read-out: minimum inhibitory concentration (M.I.C.)", "description": "as §1"}, "[8]": {"system": "Klebsiella pneumoniae PCI 602", "test": "M.I.C. by standard serial dilution method", "type": "cell-based", "conditions": "PCI602, K. pneumoniae PCI 602, nutrient agar, 37° C, 18 hours, read-out: minimum inhibitory concentration (M.I.C.)", "description": "as §1"}, "Escherichia coli K-12": {"system": "Escherichia coli K-12", "test": "M.I.C. by standard serial dilution method", "type": "cell-based", "conditions": "K12, E. coli K-12, nutrient agar, 37° C, 18 hours, read-out: minimum inhibitory concentration (M.I.C.)", "description": "as §1"}, "Salmonella typhosa T-63": {"system": "Salmonella typhosa T-63", "test": "M.I.C. by standard serial dilution method", "type": "cell-based", "conditions": "Salmonella enterica, 18 h, read-out: minimum inhibitory concentration (M.I.C.)", "description": "as §1"}, "[9]": {"system": "Escherichia coli K-12 W677", "test": "M.I.C. by standard serial dilution method", "type": "cell-based", "conditions": "K12W677, E. coli K-12 W677, nutrient agar, 37° C, 18 hours, read-out: minimum inhibitory concentration (M.I.C.)", "description": "as §1"}, "[10]": {"system": "Staphylococcus aureus FDA 209P", "test": "M.I.C. by standard serial dilution method", "type": "cell-based", "conditions": "FDA209P, S. aureus FDA 209P, nutrient agar, 37° C, 18 hours, read-out: minimum inhibitory concentration (M.I.C.)", "description": "as §1"}, "[11]": {"system": "Pseudomonas aeruginosa No. 12", "test": "M.I.C. by standard serial dilution method", "type": "cell-based", "conditions": "P. aeruginosa No. 12, nutrient agar, 37° C, 18 hours, read-out: minimum inhibitory concentration (M.I.C.)", "description": "as §1"}, "[12]": {"system": "Escherichia coli K-12 ML 1630", "test": "M.I.C. by standard serial dilution method", "type": "cell-based", "conditions": "K12ML1630, E. coli K-12 ML 1630, nutrient agar, 37° C, 18 hours, read-out: minimum inhibitory concentration (M.I.C.)", "description": "as §1"}, "[13]": {"system": "Klebsiella pneumoniae Type 22, No. 3038", "test": "M.I.C. by standard serial dilution method", "type": "cell-based", "conditions": "K. pneumoniae Type 22, No. 3038, nutrient agar, 37° C, 18 hours, read-out: minimum inhibitory concentration (M.I.C.)", "description": "as §1"}, "[14]": {"system": "Escherichia coli K-12 LA 290 R56", "test": "M.I.C. by standard serial dilution method", "type": "cell-based", "conditions": "K12LA290R56, 18 h, read-out: minimum inhibitory concentration (M.I.C.)", "description": "as §1"}, "Proteus rettgeri GN 311": {"system": "Proteus rettgeri GN 311", "test": "M.I.C. by standard serial dilution method", "type": "cell-based", "conditions": "Providencia rettgeri, GN311, nutrient agar, 37° C, 18 hours, read-out: minimum inhibitory concentration (M.I.C.)", "description": "as §1"}, "[15]": {"system": "Escherichia coli K-12 ML 1410", "test": "M.I.C. by standard serial dilution method", "type": "cell-based", "conditions": "K12ML1410, E. coli K-12 ML 1410, nutrient agar, 37° C, 18 hours, read-out: minimum inhibitory concentration (M.I.C.)", "description": "as §1"}, "[16]": {"system": "Pseudomonas aeruginosa 99", "test": "M.I.C. by standard serial dilution method", "type": "cell-based", "conditions": "P. aeruginosa 99, nutrient agar, 37° C, 18 hours, read-out: minimum inhibitory concentration (M.I.C.)", "description": "as §1"}, "Bacillus subtilis B-558": {"system": "Bacillus subtilis B-558", "test": "M.I.C. by standard serial dilution method", "type": "cell-based", "conditions": "B558, B. subtilis B-558, nutrient agar, 37° C, 18 hours, read-out: minimum inhibitory concentration (M.I.C.)", "description": "as §1"}, "[17]": {"system": "Escherichia coli K-12 JR66/W677", "test": "M.I.C. by standard serial dilution method", "type": "cell-based", "conditions": "K12JR66/W677, 18 h, read-out: minimum inhibitory concentration (M.I.C.)", "description": "as §1"}, "Escherichia coli NIHJ": {"system": "Escherichia coli NIHJ", "test": "M.I.C. by standard serial dilution method", "type": "cell-based", "conditions": "E. coli NIHJ, nutrient agar, 37° C, 18 hours, read-out: minimum inhibitory concentration (M.I.C.)", "description": "as §1"}, "[18]": {"system": "Escherichia coli K-12 ML 1629", "test": "M.I.C. by standard serial dilution method", "type": "cell-based", "conditions": "K12ML1629, E. coli K-12 ML 1629, nutrient agar, 37° C, 18 hours, read-out: minimum inhibitory concentration (M.I.C.)", "description": "as §1"}}, "data": [{"molecule": "NCC(O)C(=O)N[C@@H]1C[C@H](N)[C@@H](O[C@H]2O[C@H](CN)[C@@H](O)[C@H](O)[C@H]2N)[C@H](O)[C@H]1O[C@H]1O[C@H](CO)[C@@H](O)[C@H](N)[C@H]1O", "note": "(some centres unmarked) [1-N-isoserylkanamycin B]", "values": [{"measurement": "antibacterial activity against resistant bacteria", "setting": "[1]", "result": "active against the kanamycin-resistant bacteria"}]}, {"molecule": "NCCC(O)C(=O)N[C@@H]1C[C@H](N)[C@@H](O[C@H]2O[C@H](CN)[C@@H](O)[C@H](O)[C@H]2O)[C@H](O)[C@H]1O[C@H]1O[C@H](CO)[C@@H](O)[C@H](N)[C@H]1O", "note": "(some centres unmarked) [1-N-(4-amino-2-hydroxybutyryl)-kanamycin]", "values": [{"measurement": "antibacterial activity against resistant bacteria", "setting": "[1]", "result": "active against the kanamycin-resistant bacteria"}]}, {"molecule": "NCC(O)C(=O)N[C@@H]1C[C@H](N)[C@@H](O[C@H]2O[C@H](CN)[C@@H](O)[C@H](O)[C@H]2O)[C@H](O)[C@H]1O[C@H]1O[C@H](CO)[C@@H](O)[C@H](N)[C@H]1O", "note": "(some centres unmarked) [1-N-isoserylkanamycin]", "values": [{"measurement": "antibacterial activity against resistant bacteria", "setting": "[1]", "result": "active against the kanamycin-resistant bacteria"}]}, {"molecule": "NCC[C@H](O)C(=O)N[C@@H]1C[C@H](N)[C@@H](O[C@H]2O[C@H](CN)[C@@H](O)C[C@H]2N)[C@H](O[C@@H]2O[C@H](CO)[C@@H](O)[C@H]2O)[C@H]1O", "note": "[Compound No. 5, 1-N-((S)-4-amino-2-hydroxybutyryl)-3'-deoxy-5-O-β-D-ribofuranosylneamine]", "values": [{"measurement": "MIC", "setting": "Sarcina lutea PCl 1001", "result": 25, "unit": "µg/mL"}, {"measurement": "MIC", "setting": "[2]", "result": 0.78, "unit": "µg/mL"}, {"measurement": "MIC", "setting": "[3]", "result": 25, "unit": "µg/mL"}, {"measurement": "MIC", "setting": "[4]", "result": 0.2, "unit": "µg/mL"}, {"measurement": "MIC", "setting": "[5]", "result": "> 100", "unit": "µg/mL"}, {"measurement": "MIC", "setting": "[6]", "result": "< 0.2", "unit": "µg/mL"}, {"measurement": "MIC", "setting": "Proteus rettgeri GN 466", "result": 0.78, "unit": "µg/mL"}, {"measurement": "MIC", "setting": "[7]", "result": 3.12, "unit": "µg/mL"}, {"measurement": "MIC", "setting": "[8]", "result": 0.39, "unit": "µg/mL"}, {"measurement": "MIC", "setting": "Escherichia coli K-12", "result": 0.2, "unit": "µg/mL"}, {"measurement": "MIC", "setting": "Salmonella typhosa T-63", "result": 0.39, "unit": "µg/mL"}, {"measurement": "MIC", "setting": "[9]", "result": 0.39, "unit": "µg/mL"}, {"measurement": "MIC", "setting": "[10]", "result": 0.39, "unit": "µg/mL"}, {"measurement": "MIC", "setting": "[11]", "result": 25, "unit": "µg/mL"}, {"measurement": "MIC", "setting": "[12]", "result": 1.56, "unit": "µg/mL"}, {"measurement": "MIC", "setting": "[13]", "result": 0.78, "unit": "µg/mL"}, {"measurement": "MIC", "setting": "[14]", "result": 0.39, "unit": "µg/mL"}, {"measurement": "MIC", "setting": "Proteus rettgeri GN 311", "result": 3.12, "unit": "µg/mL"}, {"measurement": "MIC", "setting": "[15]", "result": 0.78, "unit": "µg/mL"}, {"measurement": "MIC", "setting": "[16]", "result": 12.5, "unit": "µg/mL"}, {"measurement": "MIC", "setting": "Bacillus subtilis B-558", "result": "< 0.2", "unit": "µg/mL"}, {"measurement": "MIC", "setting": "[17]", "result": 1.56, "unit": "µg/mL"}, {"measurement": "MIC", "setting": "Escherichia coli NIHJ", "result": 0.78, "unit": "µg/mL"}, {"measurement": "MIC", "setting": "[18]", "result": 0.39, "unit": "µg/mL"}]}, {"molecule": "NC[C@H]1O[C@H](O[C@H]2[C@H](O[C@@H]3O[C@H](CO)[C@@H](O)[C@H]3O)[C@@H](O)[C@H](N)C[C@@H]2N)[C@H](N)C[C@@H]1O", "note": "[3'-deoxyribostamycin]", "values": [{"measurement": "antibacterial activity against resistant bacteria", "setting": "[1]", "result": "high antibacterial activity against the above-mentioned resistant bacteria"}]}, {"molecule": "NC[C@H]1O[C@H](O[C@H]2[C@H](O)[C@@H](O[C@H]3O[C@H](CO)[C@@H](O)[C@H](N)[C@H]3O)[C@H](N)C[C@@H]2N)[C@H](N)C[C@@H]1O", "note": "[3'-deoxykanamycin B]", "values": [{"measurement": "antibacterial activity against resistant bacteria", "setting": "[1]", "result": "high antibacterial activity against the above-mentioned resistant bacteria"}]}]}
